What all share (format): cell-based
Test [1] addresses T1, recombinant rat GluN1/GluN2B (Rattus norvegicus, UniProt P35439+Q00960).
T1 construct: expressed in transfected cells; host or cells: Xenopus laevis oocytes injected with cRNA (GluN1:GluN2 ratio 1:2)
The test can be described thus: Two-electrode voltage-clamp recordings in Xenopus laevis oocytes, GluN2B. The conditions noted are these: oocytes, 100 μM glutamate and 30 μM glycine. The protocol: (§1) All target compounds were evaluated for activity by the Traynelis laboratory at Emory University using two-electrode voltage-clamp recordings performed in Xenopus laevis oocytes expressing recombinant GluN2A-D subunits (Table 1). […] Two ester compounds 997-65 and 997-66 also performed no inhibition at GluN2A to GluN2D receptors. […] Consequently, for the compounds that Acker et al. already published, it was necessary to increase the concentration to 100 μM when collecting data for a concentration effect curve. […] Therefore, under this condition, we can only conclude that compound 997-67 remained potent at GluN2C/D-containing receptors, but its selectivity over GluN2A- and GluN2B-containing receptors could not be compared to 997-57. […] Finally, replacing the carboxylic acid to the bio-isostere amide yielded compounds 997-96 and 997-115, which dropped the potency 2- to 4-fold in comparison to their corresponding acids 997-74 and 997-114.
(§2) Two-electrode voltage-clamp recordings were performed in Xenopus laevis oocytes that were injected with mRNA to express recombinant rat GluN1/GluN2A, GluN1/GluN2B, GluN1/GluN2C, and GluN1/GluN2D. The recordings using unfertilized oocytes from Xenopus laevis were permitted by Emory University Institutional Animal Care and Use Committee (IACUC). An automatic injector (Nanoject II, Drummond Scientific) was used for cRNA injection using the pipettes filled with mineral oil. The cRNA that transcribed in vitro via the mMessage Machine kit (Ambion) was diluted with nuclease-free water, and then injected at GluN1/GluN2 with a ratio of 1:2. The oocytes were stored in Barth's solution that contained 88 mM NaCl, 5.0 mM Tris-HCl, 2.4 mM NaHCO3, 1.0 mM KCl, 0.84 mM MgSO4, 0.41 mM CaCl2, 0.33 mM Ca(NO3)2, 0.1 mg/ml gentamycin sulfate, 1.0 U/ml penicillin, and 1 μg/ml streptomycin at a pH of 7.4 and temperatures of 15-17° C. for two to five days before the two-electrode voltage-clamp recordings. When recording, the oocytes were placed in a perfusion chamber and continually washed with the recording solution comprised of 90 mM NaCl, 1.0 mM KCl, 0.50 mM BaCl2, 0.005 mM EDTA, and 10 mM HEPES at a pH of 7.4 and a temperature of 23° C. Glass electrodes with a tip resistance of 0.5 to 2.5 MΩ were obtained from thin-walled glass capillary tubes. Voltage electrodes and current electrodes were filled with 0.3 M and 3.0 M KCl, respectively. The recordings were executed with the oocytes membrane potential holding at −40 m V by an OC-725 amplifier (Warner Instrument Co). All compounds were dissolved in dimethyl sulfoxide (DMSO) as 20 mM stock solutions and future diluted to reach the desired concentration (0.05-0.5% (vol/vol) DMSO) in recording solution comprised of 30 μM glycine and 100 μM glutamate. Each compound was recorded 3-7 times in the least 4 oocytes from at least 2 different Xenopus laevis.
(§3) To evaluate the inhibition of compounds, the concentration-response curve was fitted with the average two-electrode voltage-clamp recording results with the equation
(§4) [formula] • where IC50 is the concentration of compounds that inhibit half maximal of the current response and N is the Hill slope.
Background: Two-electrode voltage clamp holds a large cell at a set potential and records current.

Test [2] concerns the target T2, recombinant rat GluN1/GluN2C (Rattus norvegicus, UniProt P35439+Q00961).
T2 construct: expressed in transfected cells; host or cells: Xenopus laevis oocytes injected with cRNA (GluN1:GluN2 ratio 1:2)
The test can be described thus: Two-electrode voltage-clamp recordings in Xenopus laevis oocytes, GluN2C. The note with it: oocytes, 100 μM glutamate and 30 μM glycine; read-out: GluN2C IC50. The protocol: as §1, §2, §3, §4

The target of test [3] is T3, recombinant rat GluN1/GluN2A (Rattus norvegicus, UniProt P35439+Q00959).
T3 construct: expressed in transfected cells; host or cells: Xenopus laevis oocytes injected with cRNA (GluN1:GluN2 ratio 1:2)
T3 sequence (Q00959 23-1464, other chains not shown): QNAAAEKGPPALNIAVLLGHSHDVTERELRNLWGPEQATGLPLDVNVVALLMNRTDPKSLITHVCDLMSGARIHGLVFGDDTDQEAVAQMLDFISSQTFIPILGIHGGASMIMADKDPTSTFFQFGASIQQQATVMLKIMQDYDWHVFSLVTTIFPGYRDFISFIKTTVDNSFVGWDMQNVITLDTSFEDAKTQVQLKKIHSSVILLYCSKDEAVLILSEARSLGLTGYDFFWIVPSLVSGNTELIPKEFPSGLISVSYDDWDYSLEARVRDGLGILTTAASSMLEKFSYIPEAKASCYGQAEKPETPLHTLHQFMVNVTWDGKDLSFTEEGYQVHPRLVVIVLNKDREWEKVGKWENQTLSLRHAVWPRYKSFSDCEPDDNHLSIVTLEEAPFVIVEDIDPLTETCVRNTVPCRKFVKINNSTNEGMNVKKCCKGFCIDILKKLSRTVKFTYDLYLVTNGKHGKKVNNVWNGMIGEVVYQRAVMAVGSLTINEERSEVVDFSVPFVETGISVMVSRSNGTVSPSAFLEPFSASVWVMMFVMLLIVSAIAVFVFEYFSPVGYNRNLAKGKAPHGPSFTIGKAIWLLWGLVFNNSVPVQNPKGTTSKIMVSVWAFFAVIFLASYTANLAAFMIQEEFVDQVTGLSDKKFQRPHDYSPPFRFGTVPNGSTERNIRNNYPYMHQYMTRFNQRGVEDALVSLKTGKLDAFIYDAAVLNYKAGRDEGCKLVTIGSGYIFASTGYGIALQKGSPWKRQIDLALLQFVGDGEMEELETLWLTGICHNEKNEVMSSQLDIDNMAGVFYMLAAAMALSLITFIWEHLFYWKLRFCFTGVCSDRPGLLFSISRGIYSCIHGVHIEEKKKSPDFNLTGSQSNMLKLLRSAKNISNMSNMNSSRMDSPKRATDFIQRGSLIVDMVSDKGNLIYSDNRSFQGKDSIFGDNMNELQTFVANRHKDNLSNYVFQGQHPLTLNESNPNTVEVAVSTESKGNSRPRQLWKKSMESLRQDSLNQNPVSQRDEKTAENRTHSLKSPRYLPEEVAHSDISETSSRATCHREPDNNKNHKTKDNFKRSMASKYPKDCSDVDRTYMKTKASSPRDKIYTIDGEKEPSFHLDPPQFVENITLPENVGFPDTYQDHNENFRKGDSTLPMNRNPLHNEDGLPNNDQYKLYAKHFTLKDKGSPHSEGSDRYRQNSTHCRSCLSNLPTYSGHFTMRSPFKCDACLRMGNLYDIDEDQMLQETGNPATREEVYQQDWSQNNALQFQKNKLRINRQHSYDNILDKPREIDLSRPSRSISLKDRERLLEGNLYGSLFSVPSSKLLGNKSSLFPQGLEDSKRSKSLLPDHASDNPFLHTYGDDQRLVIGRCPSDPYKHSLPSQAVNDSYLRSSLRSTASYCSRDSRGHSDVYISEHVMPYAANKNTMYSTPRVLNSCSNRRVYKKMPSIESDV
The test can be described thus: Two-electrode voltage-clamp recordings in Xenopus laevis oocytes, GluN2A. The note with it: oocytes, 100 μM glutamate and 30 μM glycine. The protocol:
as §1, §2, §3, §4

Test [4] deals with T4, recombinant rat GluN1/GluN2D (Rattus norvegicus, UniProt P35439+Q62645).
T4 construct: expressed in transfected cells; host or cells: Xenopus laevis oocytes injected with cRNA (GluN1:GluN2 ratio 1:2)
T4 sequence (Q62645 28-1323, other chains not shown): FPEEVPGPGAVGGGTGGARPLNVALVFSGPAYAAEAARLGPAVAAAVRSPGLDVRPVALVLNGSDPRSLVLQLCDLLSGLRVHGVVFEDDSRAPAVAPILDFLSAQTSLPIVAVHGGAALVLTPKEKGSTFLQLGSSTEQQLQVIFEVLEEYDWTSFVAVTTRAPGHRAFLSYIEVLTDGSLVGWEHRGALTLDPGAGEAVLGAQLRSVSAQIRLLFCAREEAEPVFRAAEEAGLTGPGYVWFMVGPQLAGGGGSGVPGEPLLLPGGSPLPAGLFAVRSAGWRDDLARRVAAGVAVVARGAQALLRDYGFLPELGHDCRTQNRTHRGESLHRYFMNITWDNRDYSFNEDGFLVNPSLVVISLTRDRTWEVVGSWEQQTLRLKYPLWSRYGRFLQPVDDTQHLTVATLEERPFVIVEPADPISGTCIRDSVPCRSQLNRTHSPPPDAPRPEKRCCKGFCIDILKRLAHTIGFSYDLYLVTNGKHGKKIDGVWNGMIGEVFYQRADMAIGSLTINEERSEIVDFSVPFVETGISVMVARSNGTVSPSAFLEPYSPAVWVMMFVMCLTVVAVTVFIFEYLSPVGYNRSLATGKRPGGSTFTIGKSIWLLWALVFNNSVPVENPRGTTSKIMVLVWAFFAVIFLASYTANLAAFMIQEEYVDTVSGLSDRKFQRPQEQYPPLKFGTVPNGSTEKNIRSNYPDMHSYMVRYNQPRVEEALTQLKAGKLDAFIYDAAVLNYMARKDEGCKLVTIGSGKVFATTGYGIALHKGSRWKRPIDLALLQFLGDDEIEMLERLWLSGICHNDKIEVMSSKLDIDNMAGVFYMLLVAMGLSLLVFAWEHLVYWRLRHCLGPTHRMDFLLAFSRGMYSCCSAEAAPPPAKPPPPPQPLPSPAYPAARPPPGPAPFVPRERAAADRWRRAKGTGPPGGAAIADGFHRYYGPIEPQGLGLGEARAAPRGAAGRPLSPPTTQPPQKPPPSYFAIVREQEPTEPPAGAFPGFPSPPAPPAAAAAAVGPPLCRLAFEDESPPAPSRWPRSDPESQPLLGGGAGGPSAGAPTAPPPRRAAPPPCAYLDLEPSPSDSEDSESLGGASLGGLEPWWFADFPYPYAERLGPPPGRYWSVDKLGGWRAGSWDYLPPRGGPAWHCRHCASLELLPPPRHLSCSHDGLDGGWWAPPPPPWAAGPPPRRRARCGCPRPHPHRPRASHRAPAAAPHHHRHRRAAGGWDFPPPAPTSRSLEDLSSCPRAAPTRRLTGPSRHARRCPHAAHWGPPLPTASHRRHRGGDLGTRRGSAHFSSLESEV
The test can be described thus: Two-electrode voltage-clamp recordings in Xenopus laevis oocytes, GluN2D. The protocol: as §1, §2, §3, §4

For test [5], the target named is T5, recombinant rat GluN1/GluN2D (Rattus norvegicus, UniProt Q62645).
T5 construct: expressed in transfected cells; host or cells: Xenopus laevis oocytes injected with cRNA (GluN1:GluN2 ratio 1:2)
T5 sequence (Q62645 28-1323, other chains not shown): as above
The test is described as above. The conditions noted are these: for 2B IC50 / 2D IC50 / 2A IC50 / 2D IC50: ratio of IC50 values. The protocol:
as §1, §2, §3, §4

[6] abbreviates: oocytes, 100 μM glutamate and 30 μM glycine, read-out: GluN2D IC50.
The mark [7] stands for this setting: read-out: IC50 at GluN2D-containing receptors.

The record followed here is patent publication US12391664B2, “GluN2C/D subunit selective antagonists of the N-methyl-D-aspartate receptor” (Emory University, priority 2018, dated 2025).

Read-outs that look alike come from different tables or passages of the source.

What is called IC50 is the midpoint of a concentration-inhibition curve.

T2 sequence (Q00961 20-1237, other chains not shown): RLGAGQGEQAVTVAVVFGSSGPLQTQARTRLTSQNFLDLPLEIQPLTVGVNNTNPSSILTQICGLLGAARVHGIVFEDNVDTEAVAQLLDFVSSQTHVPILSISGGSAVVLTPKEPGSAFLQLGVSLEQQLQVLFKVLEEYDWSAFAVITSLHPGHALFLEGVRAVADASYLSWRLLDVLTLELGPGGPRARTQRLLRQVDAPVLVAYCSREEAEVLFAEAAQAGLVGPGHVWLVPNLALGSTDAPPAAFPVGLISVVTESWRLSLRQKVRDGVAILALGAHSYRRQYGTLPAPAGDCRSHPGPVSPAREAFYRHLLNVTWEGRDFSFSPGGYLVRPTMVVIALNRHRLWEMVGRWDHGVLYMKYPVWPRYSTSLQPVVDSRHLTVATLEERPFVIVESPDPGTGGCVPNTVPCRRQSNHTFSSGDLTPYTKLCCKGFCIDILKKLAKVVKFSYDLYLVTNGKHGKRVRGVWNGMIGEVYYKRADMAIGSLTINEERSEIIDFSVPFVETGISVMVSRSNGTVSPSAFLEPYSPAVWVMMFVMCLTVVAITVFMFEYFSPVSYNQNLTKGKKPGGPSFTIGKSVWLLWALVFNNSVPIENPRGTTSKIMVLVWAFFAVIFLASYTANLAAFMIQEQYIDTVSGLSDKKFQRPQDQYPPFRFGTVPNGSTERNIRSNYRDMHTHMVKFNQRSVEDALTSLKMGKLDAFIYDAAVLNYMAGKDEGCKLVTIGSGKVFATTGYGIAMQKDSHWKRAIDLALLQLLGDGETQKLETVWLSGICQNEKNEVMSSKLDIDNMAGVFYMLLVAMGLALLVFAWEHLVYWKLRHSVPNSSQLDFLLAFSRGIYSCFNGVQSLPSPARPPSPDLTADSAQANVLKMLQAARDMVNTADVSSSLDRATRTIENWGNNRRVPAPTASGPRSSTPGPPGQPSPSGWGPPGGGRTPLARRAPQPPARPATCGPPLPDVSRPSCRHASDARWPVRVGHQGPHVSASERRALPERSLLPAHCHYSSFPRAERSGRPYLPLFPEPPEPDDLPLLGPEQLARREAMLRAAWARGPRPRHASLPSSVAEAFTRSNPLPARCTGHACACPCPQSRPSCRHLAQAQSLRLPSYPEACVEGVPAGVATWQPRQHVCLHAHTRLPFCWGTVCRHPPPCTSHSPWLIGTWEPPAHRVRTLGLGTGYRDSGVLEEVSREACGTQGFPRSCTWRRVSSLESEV

Consider `O=C(O)CC(F)(F)C(=O)N1N=C(c2ccccc2-c2ccc(Cl)cc2)CC1c1ccc(OC(F)(F)F)cc1` (stereo not shown) [997-117, 4-(3-(4′-chloro-[1,1′-biphenyl]-2-yl)-5-(4-(trifluoromethoxy)phenyl)-4,5-dihydro-1H-pyrazol-1-yl)-3,3-difluoro-4-oxobutanoic acid], for which the IC50 was 8.79 µM in test [1], 3.44 µM in test [2], 17.2 µM in test [3] and 2.87 µM in test [4] (setting [6]). Also, the “2B IC50 / 2D IC50” value in test [5] was found to be 3.

`O=C(O)CC(F)(F)C(=O)N1N=C(c2c(-c3ccc(Cl)s3)c3ccccc3[nH]c2=O)CC1c1ccc(Cl)cc1` (stereo not shown) [997-109, 4-(5-(4-chlorophenyl)-3-(4-(5-chlorothiophen-2-yl)-2-oxo-1,2-dihydroquinolin-3-yl)-4,5-dihydro-1H-pyrazol-1-yl)-3,3-difluoro-4-oxobutanoic acid]: the IC50 worked out at 4 µM in test [1], 0.28 µM in test [2], 2.6 µM in test [3] and 0.1 µM in test [4] (setting [7]).

In the case of `O=C(O)CCC(=O)N1N=C(c2c(-c3ccc(Cl)cc3)c3ccccc3[nH]c2=O)CC1c1ccc(C(F)(F)F)cc1` (stereo not shown) [997-112, 4-(3-(4-(4-chlorophenyl)-2-oxo-1,2-dihydroquinolin-3-yl)-5-(4-(trifluoromethyl)phenyl)-4,5-dihydro-1H-pyrazol-1-yl)-4-oxobutanoic acid], the IC50 was 20 µM in test [1], 0.35 µM in test [2], 13 µM in test [3] and 0.2 µM in test [4] (setting [6]). Also, the “2B IC50 / 2D IC50” value in test [5] is on record as 100.

As for `O=C(O)/C=C(/F)C(=O)N1N=C(c2c(-c3ccc(Cl)cc3)c3ccccc3[nH]c2=O)CC1c1ccc(Cl)cc1` (stereo not shown) [997-101, (E)-4-(5-(4-chlorophenyl)-3-(4-(4-chlorophenyl)-2-oxo-1,2-dihydroquinolin-3-yl)-4,5-dihydro-1H-pyrazol-1-yl)-3-fluoro-4-oxobut-2-enoic acid], the concentration for half-maximal inhibition (IC50) turned out to be 11 µM in test [1], 0.07 µM in test [2], 3 µM in test [3] and 0.06 µM in test [4] (setting [7]). Further, the “selectivity at GluN2D- over GluN2A-containing receptor” value in test [5] is given as 50 fold. The “2A IC50 / 2D IC50” value in test [5] is 50. Also, in test [5], the “2B IC50 / 2D IC50” value was determined as 183.

For the compound `O=C(O)CC(F)(F)C(=O)N1N=C(c2ccccc2-c2ccc(Cl)cc2)CC1c1ccc(Cl)s1` (stereo not shown) [997-118, 4-(3-(4′-chloro-[1,1′-biphenyl]-2-yl)-5-(5-chlorothiophen-2-yl)-4,5-dihydro-1H-pyrazol-1-yl)-3,3-difluoro-4-oxobutanoic acid], the half-inhibitory concentration (IC50) in test [1] was 12 µM; in test [2], 3.69 µM; in test [3] it was 9.01 µM; in test [4] (setting [6]) it was 3.74 µM. In addition, the “2B IC50 / 2D IC50” value in test [5] is 3.

`O=C(O)CCC(=O)N1N=C(c2c(-c3ccc(Cl)s3)c3ccccc3[nH]c2=O)CC1c1ccc(Cl)cc1` (stereo not shown) [997-108, 4-(5-(4-chlorophenyl)-3-(4-(5-chlorothiophen-2-yl)-2-oxo-1,2-dihydroquinolin-3-yl)-4,5-dihydro-1H-pyrazol-1-yl)-4-oxobutanoic acid]: the 50% inhibitory concentration (IC50) in test [1] came to 23 µM; in test [2] it was 0.67 µM; in test [3] it was 13 µM; in test [4] (setting [6]), 0.4 µM.

With `O=C(CC(F)(F)C(=O)O)N1N=C(c2c(-c3cccc(F)c3)c3ccccc3[nH]c2=O)CC1c1ccc(Cl)cc1` (stereo not shown) [997-69, 4-{5-(4-chlorophenyl)-3-[4-(3-fluorophenyl)-2-oxo-1,2-dihydroquinolin-3-yl]-4,5-dihydro-1H-pyrazol-1-yl}-2,2-difluoro-4-oxobutanoic acid], the half-inhibitory concentration (IC50) in test [1] was 48 µM. Besides, the half-maximal inhibitory concentration (IC50) in test [3] came to 28 µM. In addition, in test [5], the “2A IC50 / 2D IC50” value turned out to be 56 and the “2B IC50 / 2D IC50” value is given as 96.

Regarding `O=C(O)CCC(=O)N1N=C(c2c(-c3ccc(Cl)cc3)c3ccccc3[nH]c2=O)CC1c1ccc(Cl)s1` (stereo not shown) [997-111, 4-(3-(4-(4-chlorophenyl)-2-oxo-1,2-dihydroquinolin-3-yl)-5-(5-chlorothiophen-2-yl)-4,5-dihydro-1H-pyrazol-1-yl)-4-oxobutanoic acid], the half-maximal inhibitory concentration (IC50) turned out to be 34 µM in test [1], 1.3 µM in test [2], 21 µM in test [3] and 0.8 µM in test [4] (setting [6]). Moreover, the “2B IC50 / 2D IC50” value in test [5] was 43.

Regarding `O=C(O)CCC(=O)N1N=C(c2c(-c3ccc(Cl)cc3)c3ccccc3[nH]c2=S)CC1c1ccc(Cl)cc1` (stereo not shown) [997-97, 4-(5-(4-chlorophenyl)-3-(4-(4-chlorophenyl)-2-thioxo-1,2-dihydroquinolin-3-yl)-4,5-dihydro-1H-pyrazol-1-yl)-4-oxobutanoic acid], the IC50 in test [1] was 30 µM; in test [2], 0.48 µM; in test [3] it was 16 µM; in test [4] (setting [6]), 0.35 µM. Also, the “2A IC50 / 2D IC50” value in test [5] was 46. Further, the “2B IC50 / 2D IC50” value in test [5] turned out to be 86.

As for `Cc1ccc2[nH]c(=O)c(C3=NN(C(=O)C(F)(F)CC(=O)O)C(c4ccc(Cl)cc4)C3)c(-c3ccc(Cl)cc3)c2c1` (stereo not shown) [997-90, 4-(5-(4-chlorophenyl)-3-(4-(4-chlorophenyl)-6-methyl-2-oxo-1,2-dihydroquinolin-3-yl)-4,5-dihydro-1H-pyrazol-1-yl)-3,3-difluoro-4-oxobutanoic acid], the IC50 in test [1] was 3 µM; in test [2], 0.4 µM; in test [3] it was 3 µM; in test [4] (setting [6]), 0.2 µM.

`O=C(O)CC(F)(F)C(=O)N1N=C(c2c(-c3ccc(Cl)cc3)c3ccccc3[nH]c2=O)CC1c1ccc(C(F)(F)F)cc1` (stereo not shown) [997-113, 4-(3-(4-(4-chlorophenyl)-2-oxo-1,2-dihydroquinolin-3-yl)-5-(4-(trifluoromethyl)phenyl)-4,5-dihydro-1H-pyrazol-1-yl)-3,3-difluoro-4-oxobutanoic acid]: the concentration for half-maximal inhibition (IC50) in test [1] was found to be 2.9 µM; in test [2], 0.17 µM; in test [3], 2.3 µM; in test [4] (setting [6]), 0.08 µM. Besides, the “2B IC50 / 2D IC50” value in test [5] is reported as 36.

`O=C(O)CC(F)(F)C(=O)N1N=C(c2c(-c3ccc(F)cc3)c3cc(F)ccc3[nH]c2=O)CC1c1ccc(Cl)cc1` (stereo not shown) [997-102, 4-(5-(4-chlorophenyl)-3-(6-fluoro-4-(4-fluorophenyl)-2-oxo-1,2-dihydroquinolin-3-yl)-4,5-dihydro-1H-pyrazol-1-yl)-3,3-difluoro-4-oxobutanoic acid]: the 50% inhibitory concentration (IC50) worked out at 7.3 µM in test [1], 1 µM in test [2], 5.9 µM in test [3] and 0.4 µM in test [4] (setting [7]).

For the compound `O=C(O)CC(F)(F)C(=O)N1N=C(c2ccccc2-c2ccc(F)c(Cl)c2)CC1c1ccc(Cl)cc1` (stereo not shown) [997-120, 4-(3-(3′-chloro-4′-fluoro-[1,1′-biphenyl]-2-yl)-5-(4-chlorophenyl)-4,5-dihydro-1H-pyrazol-1-yl)-3,3-difluoro-4-oxobutanoic acid], the IC50 turned out to be 8.8 µM in test [1], 5.23 µM in test [2], 11 µM in test [3] and 3.36 µM in test [4] (setting [6]).

With `O=C(O)CC(F)(F)C(=O)N1N=C(c2c(-c3ccc(Cl)cc3)c3ccccc3[nH]c2=O)CC1c1ccc(Cl)cc1` (stereo not shown) [997-74, 4-(5-(4-chlorophenyl)-3-(4-(4-chlorophenyl)-2-oxo-1,2-dihydroquinolin-3-yl)-4,5-dihydro-1H-pyrazol-1-yl)-3,3-difluoro-4-oxobutanoic acid], the half-maximal inhibitory concentration (IC50) in test [1] is 6.9 µM. In addition, the half-maximal inhibitory concentration (IC50) in test [3] came out at 11 µM. For the same compound, in test [5], the “selectivity at GluN2D- over GluN2A-containing receptor” value is listed as “approximately 220 fold”, the “2A IC50 / 2D IC50” value is 220 and the “2B IC50 / 2D IC50” value stood at 138.
